According to paper PMC12673733, “Hydroxyethylamine & phthalimide analogs restoring defects due to GNE dysfunction: rare disease therapeutic significance” (Molecular Medicine, 2025):

Target: T1, r-wtGNE (hGNE1; recombinant wild type GNE) (Homo sapiens, UniProt Q9Y223)
T1 construct: recombinant full-length GNE; expressed in E. coli, partially purified (methods also name pcDNA3.1 vector)
T1 sequence (Q9Y223 1-722): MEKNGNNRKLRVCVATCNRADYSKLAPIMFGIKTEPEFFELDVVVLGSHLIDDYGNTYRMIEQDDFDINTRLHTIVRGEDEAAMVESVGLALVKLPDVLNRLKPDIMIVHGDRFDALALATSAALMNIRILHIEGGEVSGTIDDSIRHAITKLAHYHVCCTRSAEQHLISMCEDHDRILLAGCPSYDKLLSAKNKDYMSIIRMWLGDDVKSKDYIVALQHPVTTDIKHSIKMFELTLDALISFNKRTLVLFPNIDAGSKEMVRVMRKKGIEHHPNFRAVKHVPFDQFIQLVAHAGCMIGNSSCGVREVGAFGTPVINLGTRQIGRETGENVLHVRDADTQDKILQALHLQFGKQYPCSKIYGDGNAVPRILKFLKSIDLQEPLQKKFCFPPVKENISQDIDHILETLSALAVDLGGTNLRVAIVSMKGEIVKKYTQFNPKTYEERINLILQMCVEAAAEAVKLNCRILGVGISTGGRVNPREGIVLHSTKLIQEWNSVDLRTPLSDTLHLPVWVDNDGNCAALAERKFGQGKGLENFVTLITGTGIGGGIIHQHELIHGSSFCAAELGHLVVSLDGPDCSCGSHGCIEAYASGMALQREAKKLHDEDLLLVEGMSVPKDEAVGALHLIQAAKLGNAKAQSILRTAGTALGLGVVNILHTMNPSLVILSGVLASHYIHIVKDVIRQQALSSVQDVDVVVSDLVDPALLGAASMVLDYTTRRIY
Test: SPR, GNE immobilised on gold chip
Assay type: binding

SMILES: C[C@H](C(=O)N[C@@H](Cc1ccccc1)[C@@H](O)CN1CCN(Cc2ccccc2)CC1)c1ccccc1 [LTC-181, (S)-N-((2 S,3 S)−4-(4-benzylpiperazin-1-yl)−3-hydroxy-1-phenylbutan-2-yl)−2-phenylpropanamide]
- Kd: 3 mM
